Melting point data for 62 compounds are collected here from a melting point compilation (Tetko et al.; mined from patent text by program, amines drawn as free bases though some values may be those of a salt).

As for `CC(=O)CCS(=O)(=O)C(c1ccc(Cl)cc1)c1ccc(Cl)cc1`, the melting point is 103 to 105 °C.

`Fc1ccc2c(CN3CCN(c4ccc(Cl)cc4)CC3)n[nH]c2c1F` registered a melting point of 167 to 168 °C. `Cc1csc2c1-n1cccc1/C2=N/OCCBr` registered a melting point of 92 °C. Then `Cc1c(C(=O)N(CC(=O)O)c2ccc(N3CCC(O)CC3)c(C#N)c2)cnn1-c1ccc(F)cc1`, with 155 to 158 °C. Regarding `COC(=O)C1=C(O)c2ccc3ccccc3c2S(=O)(=O)N1`, the melting point was in the range of 218 to 220 °C. `N#Cc1c(Cl)c2cccnc2[nH]c1=O` had a melting point of 310 °C. `O=C1Nc2ccccc2Oc2sc3ccccc3c21` showed a melting point of 240 to 242 °C. For the compound `COc1cc(C(=O)O)nc(-c2ccc(N(C)C)cc2)c1`, the melting point lay within 142 to 148 °C.

On to `CCC(=O)OC1CCC2C3CCC4=CC(=O)CCC4(C=O)C3CCC12C` (configuration not stated), for which the melting point lay in the range of 119 to 121 °C. `CC(=O)Nc1nc(CCc2ccc(NC(=O)OC(C)(C)C)cc2)c(C(=O)Nc2ccccc2)s1` displayed a melting point of 199 to 200 °C.

`Cc1cc(-c2cc(C(F)F)n3ncc(C(=O)Nc4cccc(S(N)(=O)=O)c4)c3n2)ccc1C(F)(F)F`: the melting point was determined as 252 °C.

Consider `Cc1oc(-c2ccc3ccccc3c2)nc1COc1ccc(CCCCC2OC(=O)NC2=O)cc1` (configuration not stated), for which the melting point was 163 to 164 °C. `CCOC(=O)C1Cc2ccccc2N1C(=O)c1c(O)c2cc(OC)cc3c2n(c1=O)CCO3` (configuration not stated): the melting point lay within 135 to 138 °C. Take `CCN(CC)N(C(C)=O)c1nc2c(C)c3nc(N(C(C)=O)N(CC)CC)sc3cc2s1`: the melting point is 191 to 192 °C.

In turn, `CC(C)c1nsc(N=C(C#N)N(C)C)c1C#N` had a melting point of 78 to 79 °C.

In turn, `CC1(C)C=C(N2CCNCC2=O)c2cnccc2O1` displayed a melting point of 109 to 110 °C. The compound `COCCN1CCN(c2cccc(-c3nc4cc(OC)cc(OC)c4c(=O)[nH]3)n2)CC1` had a melting point of 99 to 101 °C.

`O=S(=O)(c1ccccc1)C(Cc1ccccc1)c1ccc(C(O)(C(F)(F)F)C(F)(F)F)cc1` (configuration not stated): the melting point was 157 °C. Turning to `O=c1ccccn1[C@@H]1c2cc(C(F)(F)C(F)(F)F)ccc2OC(CF)(CF)[C@H]1O` (relative stereo), the melting point lay within 162 to 164 °C.

For `Cc1noc(NS(=O)(=O)c2ccccc2-c2ccc(-c3ncco3)cc2CN(C)C(=O)CCc2ccccc2)c1C`, the melting point lay in the range of 110 to 117 °C. For the compound `C=C(C)c1ccc2occ(C#N)c(=O)c2c1`, the melting point was in the range of 142 to 144 °C. Regarding `COc1ccc(CC(CS)C(=O)Nc2cccc(C(=O)O)c2)cc1` (configuration not stated), the melting point was in the range of 184 to 185 °C. On to `O=C(c1ccc(Br)s1)c1c(F)c(F)cc(F)c1F`, for which the melting point was 51 to 54 °C. Regarding `O=C(CCl)N1CC=C(c2cccc(C(F)(F)F)c2)n2ncc(Br)c21`, the melting point lay in the range of 128 to 130 °C. In turn, `O=C(NC(=O)c1ccc([N+](=O)[O-])cc1Cl)Nc1ccc(Cl)c(Cl)c1` displayed a melting point of 280 °C.

`CC(=O)OC1=C(CCCCCCCCC[Si](C)(C)C)C(=O)c2ccccc2C1=O` returned a melting point of 45 to 47 °C.

`CN1C(=O)c2ccccc2NC(=O)C1c1ccccc1` (configuration not stated) yielded a melting point of 242 to 244 °C. As to `CCOC(=O)c1ccc(-c2nc(N)sc2Cc2ccc(S(C)(=O)=O)cc2)cc1`, the melting point is 206 to 207 °C.

Compound `Clc1cc(NC23CC4CC(CC(C4)C2)C3)nc(N2CCCC2)n1` gave a melting point of 186 to 190 °C. Turning to `Cc1cccc(C)c1NC(=O)/C=C1\SCC(=O)N1c1ccccc1`, the melting point came out at 228 °C. Regarding `COC(=O)CCC(NC(=O)CCCC#Cc1cnc2nc(NC(=O)C(C)(C)C)nc(O)c2c1)C(=O)OC` (configuration not stated), the melting point was in the range of 159 to 160 °C.

On to `Cc1ccc(C(=O)Nc2nc(-c3ccccc3)c(-c3nc4ccccc4c(=O)n3-c3ccc(C)cc3)s2)cc1`, for which the melting point lay in the range of 217 to 218 °C. On to `O=C1Cc2ccccc2C(=O)N1c1ccc(Cl)cc1`, for which the melting point lay in the range of 178 to 180 °C. Turning to `Nc1ccc(SCCOC2OC(CO)C(OC3OC(CO)C(O)C(O)C3O)C(O)C2O)cc1` (configuration not stated), the melting point is 104 to 106 °C. For the compound `CN1Cc2cccnc2N(c2ccccc2)C1=O`, the melting point fell in the range of 172 to 173 °C. As to `CC1CC=C(c2nnn(C)n2)CN1C` (configuration not stated), the melting point was 93 to 95 °C. On to `COC(=O)c1nc(SC(F)(F)F)c(N)nc1N`, for which the melting point lay within 151 to 155 °C. Turning to `COC(=O)c1ccc(-c2ccccc2-c2nnn(C(C)(C)c3ccccc3)n2)cc1`, the melting point lay within 97 to 98 °C. Compound `CCCCCCCCCCCCCCOc1ccc(OCc2ccccc2)c(C(=O)OC)c1` came in with a melting point of 43 to 46 °C.

For `CCC12CCC3C4CCC(=O)C=C4CCC3C1CCC2OC(=O)CCc1ccccc1` (configuration not stated), the melting point fell in the range of 135 to 140 °C. In turn, `COc1ccc(O)c(NC(C)=O)c1` registered a melting point of 156 to 157 °C. Under `CC(C)(C)OC(=O)N1CCC(c2cc(F)c3oc(-c4ccc(S(C)(=O)=O)cc4F)nc3c2)CC1` stands 188 to 192 °C. For the compound `Cc1ccc(S(=O)(=O)N(C)SSN(C)S(=O)(=O)c2ccc(C)cc2)cc1`, the melting point is 90 to 94 °C.

In turn, `O=C1NCN(c2ccccc2)C12CCN(CCCn1cnc3ccccc31)CC2` came in with a melting point of 191 °C. In the case of `CCc1cc2c(s1)-n1c(C)nnc1C(N)N=C2c1ccccc1Cl` (configuration not stated), the melting point lay within 130 to 131 °C. For `CC(=O)OC1CSC(Oc2cncc(-c3ccc(OC(C)C)c(F)c3)c2)C(OC(C)=O)C1OC(C)=O` (configuration not stated), the melting point was determined as 65 °C.

`CCn1c(=O)c(C(=O)NC)c(O)c2ccc(C)nc21` displayed a melting point of 150 to 154 °C. In turn, `Cc1nnc(S)n1-c1ccccc1F` had a melting point of 119 to 120 °C. On to `Cc1ccc(-c2nc(Cc3cccc(CO)c3)c(C)o2)cc1`, for which the melting point lay within 97 to 99 °C.

With `COc1ccc2c(c1)N(CC#N)CCO2`, the melting point lay within 73 to 74 °C. For the compound `N=C(N)c1cccc(S(=O)(=O)c2ccc(OC[C@@H]3C[C@@H](CC(=O)O)C(=O)N3CCCc3ccccc3)cc2)c1`, the melting point was in the range of 205 to 207 °C.

As for `COC(=O)c1sccc1OCC(O)CN1CCC(O)(c2ccccc2)CC1` (configuration not stated), the melting point lay in the range of 150 to 152 °C.

`COC(=O)N[C@@H](Cc1ccccc1)[C@H](O)CN1C[C@H]2CCCC[C@H]2C[C@H]1C(=O)NOC(C)(C)C` returned a melting point of 194 to 195 °C. Compound `C=CC[C@@H](C(=O)N[C@H](C(=O)OCc1ccccc1)C(C)(C)C)[C@@H]1OC(C)(C)OC1=O` came in with a melting point of 67 to 70 °C.

`CC(O)c1ccc2nc(NC(=O)c3ccc(C(C)(C)C)cc3)cn2c1` (configuration not stated) returned a melting point of 249 to 250 °C. `CCOC(=O)c1cn2c(n1)CN(C(C)=O)CC2` registered a melting point of 97 °C. `O=C(O)CCCc1cc2nc(Cl)ccc2n1S(=O)(=O)c1cccc(-c2ccccc2)c1` came in with a melting point of 147 to 149 °C.

`CCOC(=O)c1ncn2c1C(C)N=C(c1ccccc1)c1cc(Br)ccc1-2` (configuration not stated) showed a melting point of 164 to 165 °C. In the case of `CN(Cc1ccc(Cl)cc1)c1ccc(S(=O)CCCCCC(=O)O)cc1` (configuration not stated), the melting point was in the range of 109 to 111 °C.

The compound `CCOC(=O)c1ccc(Sc2cc3c(cc2C)C(C)(C)CCC3(C)C)cc1` came in with a melting point of 109 to 110 °C. As to `O=C1CSC(=S)N1c1cccc(C(F)(F)F)c1`, the melting point was in the range of 177 to 178 °C. `NCCc1ccc(N2CCN(c3ccc(CC(=O)O)cc3)C2=O)cc1` displayed a melting point above 250 °C.

One may read the melting point as the temperature of the solid-liquid transition.
